The target in assay [1] is T1, A. baumannii PBP1a (Acinetobacter baumannii, UniProt A0ABX6CK30).
T1 sequence (A0ABX6CK30 1-851): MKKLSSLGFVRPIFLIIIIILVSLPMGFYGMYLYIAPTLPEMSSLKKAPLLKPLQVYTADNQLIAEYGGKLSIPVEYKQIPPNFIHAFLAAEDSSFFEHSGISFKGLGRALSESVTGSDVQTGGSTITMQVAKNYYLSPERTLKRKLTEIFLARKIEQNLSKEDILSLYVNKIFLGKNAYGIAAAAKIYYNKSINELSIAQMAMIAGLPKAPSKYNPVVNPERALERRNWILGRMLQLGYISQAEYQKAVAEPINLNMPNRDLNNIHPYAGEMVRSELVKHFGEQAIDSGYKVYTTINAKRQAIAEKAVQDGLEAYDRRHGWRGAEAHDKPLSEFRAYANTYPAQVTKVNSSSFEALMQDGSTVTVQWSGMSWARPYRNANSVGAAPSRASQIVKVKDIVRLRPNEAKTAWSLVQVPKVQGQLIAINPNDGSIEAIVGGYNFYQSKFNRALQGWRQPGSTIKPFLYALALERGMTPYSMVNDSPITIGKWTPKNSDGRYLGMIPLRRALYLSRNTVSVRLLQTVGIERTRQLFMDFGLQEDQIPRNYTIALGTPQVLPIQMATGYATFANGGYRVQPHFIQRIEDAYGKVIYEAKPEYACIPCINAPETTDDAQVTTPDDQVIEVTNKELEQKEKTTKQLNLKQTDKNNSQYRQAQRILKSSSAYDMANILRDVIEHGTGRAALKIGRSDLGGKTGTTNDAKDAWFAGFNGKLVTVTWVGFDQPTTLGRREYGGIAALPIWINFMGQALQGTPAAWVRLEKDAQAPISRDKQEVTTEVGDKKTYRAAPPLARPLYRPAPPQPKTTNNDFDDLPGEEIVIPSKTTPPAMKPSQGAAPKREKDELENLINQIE
Kind of assay: Bocillin-FL competition binding via gel filtration, A. baumannii PBP1a. The following applies: competition binding assay using Bocillin-FL via gel filtration; read-out: A. baumannii PBP1a Potency. A digest of the protocol:
(§1)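 Enzyme was pre-incubated with rising inhibitor concentrations, then Bocillin-FL was added and incubated 15 minutes more. Bound probe was separated by gel filtration and fluorescence read. EC50 came from fitting fraction of PBP labelled versus inhibitor concentration to a Hill equation with ymin, ymax and n.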

For assay [2], the target named is A. baumannii PBP2 (Acinetobacter baumannii, UniProt D0C8Z9). The experiment in a line: Bocillin-FL competition binding via gel filtration, A. baumannii PBP2. Put shortly:
as §1

For assay [3], the system named is P. aeruginosa CDC-0090. The experiment in a line: microbe, parasite or virus in culture. Type of assay: cell-based. The following applies: Pseudomonas aeruginosa, CDC0090, read-out: Minimum inhibitory concentration, P. aeruginosa CDC-0090.
Assay [4] has as its system B. pseudomallei Bp82. The experiment in a line: microbe, parasite or virus in culture. The following applies: Burkholderia pseudomallei, BP82, read-out: Minimum inhibitory concentration, B. pseudomallei Bp82. Format: cell-based.

This passage reports EC50 and MIC results from patent US20240270762A1, “PENICILLIN-BINDING PROTEIN INHIBITORS” (priority 2021, published 2024).

pEC50: −log10 of the molar value. In brackets after ≈: the same amount, converted by molar mass.

Chain of A. baumannii PBP2 (D0C8Z9 whole entry): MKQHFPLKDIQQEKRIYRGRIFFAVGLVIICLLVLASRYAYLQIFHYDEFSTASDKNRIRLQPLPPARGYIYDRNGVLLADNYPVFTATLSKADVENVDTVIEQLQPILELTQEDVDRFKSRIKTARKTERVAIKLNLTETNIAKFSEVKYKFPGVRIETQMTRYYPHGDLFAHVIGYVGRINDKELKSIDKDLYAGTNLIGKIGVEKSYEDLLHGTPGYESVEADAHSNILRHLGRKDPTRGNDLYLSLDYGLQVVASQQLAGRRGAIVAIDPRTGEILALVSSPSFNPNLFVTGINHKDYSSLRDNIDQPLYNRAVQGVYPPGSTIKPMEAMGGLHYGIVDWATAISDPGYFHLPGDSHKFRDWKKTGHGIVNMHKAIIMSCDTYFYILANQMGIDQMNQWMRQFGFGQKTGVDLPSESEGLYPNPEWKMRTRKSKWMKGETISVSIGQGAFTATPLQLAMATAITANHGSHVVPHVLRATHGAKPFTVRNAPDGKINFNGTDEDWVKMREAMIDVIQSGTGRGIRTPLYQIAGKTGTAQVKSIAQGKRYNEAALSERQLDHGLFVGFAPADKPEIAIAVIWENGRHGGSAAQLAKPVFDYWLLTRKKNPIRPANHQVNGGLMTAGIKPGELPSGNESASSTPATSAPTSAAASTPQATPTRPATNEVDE

Consider `O=C(NCCN1CCN(C(=O)NC(C(=O)N[C@H]2Cc3ccc(F)c(C(=O)O)c3OB2O)c2cc(F)c(O)c(O)c2Cl)C(=O)C1=O)c1ccncc1` (stereo partly drawn) [Example 216, (3R)-3-(2-(2-chloro-5-fluoro-3,4-dihydroxyphenyl)-2-(4-(2-(isonicotinamido)ethyl)-2,3-dioxopiperazine-1-carboxamido)acetamido)-7-fluoro-2-hydroxy-3,4-dihydro-2H-benzo[e][1,2]oxaborinine-8-carboxylic acid], for which the pEC50 in assay [1] and in assay [2] was 4.30 to 5.00 throughout. The MIC in assay [3] and in assay [4] was less than 1 µg/mL each time.

Turning to `CN(CCN1CCN(C(=O)N[C@@H](C(=O)N[C@H]2Cc3ccc(F)c(C(=O)O)c3OB2O)c2cc(F)c(O)c(O)c2Cl)C(=O)C1=O)Cc1ccc(N)nc1` [Example 209, (R)-3-((R)-2-(4-(2-(((6-aminopyridin-3-yl)methyl)(methyl)amino)ethyl)-2,3-dioxopiperazine-1-carboxamido)-2-(2-chloro-5-fluoro-3,4-dihydroxyphenyl)acetamido)-7-fluoro-2-hydroxy-3,4-dihydro-2H-benzo[e][1,2]oxaborinine-8-carboxylic acid], in assay [1], the pEC50 was 4.30 to 5.00. In addition, the MIC in assay [3] and in assay [4] was less than 1 µg/mL throughout.

As to `O=C(NCCS(=O)(=O)N1CCN(C(=O)NC(C(=O)N[C@H]2Cc3ccc(F)c(C(=O)O)c3OB2O)c2cc(F)c(O)c(O)c2Cl)C1=O)c1cccnc1` (stereo partly drawn) [Example 262, (3R)-3-(2-(2-chloro-5-fluoro-3,4-dihydroxyphenyl)-2-(3-((2-(nicotinamido)ethyl)sulfonyl)-2-oxoimidazolidine-1-carboxamido)acetamido)-7-fluoro-2-hydroxy-3,4-dihydro-2H-benzo[e][1,2]oxaborinine-8-carboxylic acid], the MIC in assay [3] and in assay [4] was less than 1 µg/mL each time.

As to `O=C(NCCN1CCN(C(=O)NC(C(=O)N[C@H]2Cc3ccc(F)c(C(=O)O)c3OB2O)c2cc(F)c(O)c(O)c2Cl)C1=O)c1nccs1` (stereo partly drawn) [Example 247, (3R)-3-(2-(2-chloro-5-fluoro-3,4-dihydroxyphenyl)-2-(2-oxo-3-(2-(thiazole-2-carboxamido)ethyl)imidazolidine-1-carboxamido)acetamido)-7-fluoro-2-hydroxy-3,4-dihydro-2H-benzo[e][1,2]oxaborinine-8-carboxylic acid], in assay [2], the pEC50 is 4.30 to 5.00. Besides, the MIC in assay [3] was 2 to 4 µg/mL (≈ 2.82 to 5.64 µM); in assay [4], less than 1 µg/mL.

Regarding `O=C(O)c1c(F)ccc2c1OB(O)[C@@H](NC(=O)C(NC(=O)N1CCN(CCCNC(=O)[C@@H]3CCCN3)C(=O)C1=O)c1cc(F)c(O)c(O)c1Cl)C2` (stereo partly drawn) [Example 212, (3R)-3-(2-(2-chloro-5-fluoro-3,4-dihydroxyphenyl)-2-(2,3-dioxo-4-(3-((S)-pyrrolidine-2-carboxamido)propyl)piperazine-1-carboxamido)acetamido)-7-fluoro-2-hydroxy-3,4-dihydro-2H-benzo[e][1,2]oxaborinine-8-carboxylic acid], the MIC in assay [3] and in assay [4] was less than 1 µg/mL each time.

As to `O=C(NCCN1CCN(C(=O)NC(C(=O)N[C@H]2Cc3ccc(F)c(C(=O)O)c3OB2O)c2cc(F)c(O)c(O)c2Cl)C(=O)C1=O)c1cccnc1` (stereo partly drawn) [Example 217, (3R)-3-(2-(2-chloro-5-fluoro-3,4-dihydroxyphenyl)-2-(4-(2-(nicotinamido)ethyl)-2,3-dioxopiperazine-1-carboxamido)acetamido)-7-fluoro-2-hydroxy-3,4-dihydro-2H-benzo[e][1,2]oxaborinine-8-carboxylic acid], the MIC in assay [3] was 2 to 4 µg/mL (≈ 2.74 to 5.47 µM); in assay [4] it was 8 to 16 µg/mL (≈ 10.9 to 21.9 µM).

As for `O=C(NCCN1CCN(C(=O)NC(C(=O)N[C@H]2Cc3ccc(F)c(C(=O)O)c3OB2O)c2cc(F)c(O)c(O)c2Cl)C1=O)Nc1cccc(O)c1` (stereo partly drawn) [Example 249, (3R)-3-(2-(2-chloro-5-fluoro-3,4-dihydroxyphenyl)-2-(3-(2-(3-(3-hydroxyphenyl)ureido)ethyl)-2-oxoimidazolidine-1-carboxamido)acetamido)-7-fluoro-2-hydroxy-3,4-dihydro-2H-benzo[e][1,2]oxaborinine-8-carboxylic acid], in assay [1], the pEC50 is 4.30 to 5.00. The MIC in assay [3] and in assay [4] was less than 1 µg/mL in each case.

As to `O=C(NCCN1CCN(C(=O)NC(C(=O)N[C@H]2Cc3ccc(F)c(C(=O)O)c3OB2O)c2cc(F)c(O)c(O)c2Cl)C1=O)c1ccncc1` (stereo partly drawn) [Example 245, (3R)-3-(2-(2-chloro-5-fluoro-3,4-dihydroxyphenyl)-2-(3-(2-(isonicotinamido)ethyl)-2-oxoimidazolidine-1-carboxamido)acetamido)-7-fluoro-2-hydroxy-3,4-dihydro-2H-benzo[e][1,2]oxaborinine-8-carboxylic acid], the MIC in assay [3] and in assay [4] was less than 1 µg/mL each time.

Take `CN(CCN1CCN(C(=O)N[C@@H](C(=O)N[C@H]2Cc3ccc(F)c(C(=O)O)c3OB2O)c2cc(F)c(O)c(O)c2Cl)C(=O)C1=O)Cc1ccc(C(N)=O)cc1` [Example 226, (R)-3-((R)-2-(4-(2-((4-carbamoylbenzyl)(methyl)amino)ethyl)-2,3-dioxopiperazine-1-carboxamido)-2-(2-chloro-5-fluoro-3,4-dihydroxyphenyl)acetamido)-7-fluoro-2-hydroxy-3,4-dihydro-2H-benzo[e][1,2]oxaborinine-8-carboxylic acid]: the pEC50 in assay [1] is 4.30 to 5.00. In addition, the MIC in assay [3] and in assay [4] was less than 1 µg/mL throughout.

On to `O=C(NCCN1CCN(C(=O)NC(C(=O)N[C@H]2Cc3ccc(F)c(C(=O)O)c3OB2O)c2cc(F)c(O)c(O)c2Cl)C1=O)Nc1ccncc1` (stereo partly drawn) [Example 250, (3R)-3-(2-(2-chloro-5-fluoro-3,4-dihydroxyphenyl)-2-(2-oxo-3-(2-(3-(pyridin-4-yl)ureido)ethyl)imidazolidine-1-carboxamido)acetamido)-7-fluoro-2-hydroxy-3,4-dihydro-2H-benzo[e][1,2]oxaborinine-8-carboxylic acid], for which the MIC in assay [3] was 2 to 4 µg/mL (≈ 2.79 to 5.57 µM); in assay [4] it was less than 1 µg/mL.

In the case of `CN(CCN1CCN(C(=O)N[C@@H](C(=O)N[C@H]2Cc3ccc(F)c(C(=O)O)c3OB2O)c2cc(F)c(O)c(O)c2Cl)C(=O)C1=O)Cc1cccc(C(N)=O)c1` [Example 225, (R)-3-((R)-2-(4-(2-((3-carbamoylbenzyl)(methyl)amino)ethyl)-2,3-dioxopiperazine-1-carboxamido)-2-(2-chloro-5-fluoro-3,4-dihydroxyphenyl)acetamido)-7-fluoro-2-hydroxy-3,4-dihydro-2H-benzo[e][1,2]oxaborinine-8-carboxylic acid], the pEC50 in assay [1] was 4.30 to 5.00. Also, the MIC in assay [3] and in assay [4] was less than 1 µg/mL each time.

Consider `O=C(O)c1c(F)ccc2c1OB(O)[C@@H](NC(=O)C(NC(=O)N1CCN(S(=O)(=O)CCCNC(=O)[C@@H]3CCCN3)C1=O)c1cc(F)c(O)c(O)c1Cl)C2` (stereo partly drawn) [Example 275, (3R)-3-(2-(2-chloro-5-fluoro-3,4-dihydroxyphenyl)-2-(2-oxo-3-((3-((S)-pyrrolidine-2-carboxamido)propyl)sulfonyl)imidazolidine-1-carboxamido)acetamido)-7-fluoro-2-hydroxy-3,4-dihydro-2H-benzo[e][1,2]oxaborinine-8-carboxylic acid], for which the results for the MIC in assay [3] and in assay [4] were 8 to 16 µg/mL (≈ 10.4 to 20.7 µM) and less than 1 µg/mL, respectively.

Take `CN(CCN1CCN(C(=O)NC(C(=O)N[C@H]2Cc3ccc(F)c(C(=O)O)c3OB2O)c2cc(F)c(O)c(O)c2Cl)C(=O)C1=O)S(=O)(=O)c1ccc(C(N)=O)cc1` (stereo partly drawn) [Example 223, (3R)-3-(2-(4-(2-((4-carbamoyl-N-methylphenyl)sulfonamido)ethyl)-2,3-dioxopiperazine-1-carboxamido)-2-(2-chloro-5-fluoro-3,4-dihydroxyphenyl)acetamido)-7-fluoro-2-hydroxy-3,4-dihydro-2H-benzo[e][1,2]oxaborinine-8-carboxylic acid]: the pEC50 in assay [1] was greater than 5.00. The figures for the MIC in assay [3] and in assay [4] were 2 to 4 µg/mL (≈ 2.43 to 4.86 µM) and less than 1 µg/mL, respectively.

For `CN(CCN1CCN(C(=O)NC(C(=O)N[C@H]2Cc3ccc(F)c(C(=O)O)c3OB2O)c2cc(F)c(O)c(O)c2Cl)C(=O)C1=O)S(=O)(=O)c1cccc(C(N)=O)c1` (stereo partly drawn) [Example 224, (3R)-3-(2-(4-(2-((3-carbamoyl-N-methylphenyl)sulfonamido)ethyl)-2,3-dioxopiperazine-1-carboxamido)-2-(2-chloro-5-fluoro-3,4-dihydroxyphenyl)acetamido)-7-fluoro-2-hydroxy-3,4-dihydro-2H-benzo[e][1,2]oxaborinine-8-carboxylic acid], the pEC50 in assay [1] is greater than 5.00. The MIC in assay [3] and in assay [4] was less than 1 µg/mL each time.
